The values below come from publication PMC7734798 (ACS Medicinal Chemistry Letters, 2020).

Entries after “also recorded” stand apart in the source; their conditions may differ. Read-outs that look alike come from different tables or passages of the source.

For one data set, the system named is iNOS. Description: Immunomodulation assay: iNOS (M1 marker) expression in LPS-treated N9 microglial cells (Western blot). The class given is cell-based, mouse. The settings on record: 100 ng/mL LPS, 6 h pretreatment + 24 h, even at 0.5 μM. The source says: (§1) Microglia, essential regulators of neuroinflammatory processes, can be polarized to two distinct activation states: M1 and M2. M1 microglia have proinflammatory, neurotoxic properties and are modeled in vitro through lipopolysaccharides (LPS) activation. Alternatively, M2 microglia are involved in anti-inflammatory processes, contributing to trophic support of neurons and neuroprotective functions. A marked microglial activation with high expression levels of proinflammatory genes is found in MS lesions.[23] Conversely, the neuroprotective effects of the MS drug glatiramer are mediated by activated M2 microglia.[24] To this end, we evaluated whether 1 and 2 modulate microglial shift from an M1 neurotoxic phenotype to an M2 neuroprotective one. […] After pretreatment for 6 h and administration for a further 24 h, the microglial phenotype was evaluated through Western blot analysis of the M1-iNOS (inducible Nitric Oxide Synthase) and M2-TREM2 (Triggering Receptor Expressed on Myeloid cells 2) markers (Figure 6). We also assessed nitrite production, due to iNOS induction, in the incubation media. […]
(§2) Nitrite accumulation in cell media was assayed by the Griess reaction. […] Absorbance was read at 540 nm using a plate reader after 15 min of incubation at room […]
(§3) After 24 hours, the viability was evaluated through the MTT assay. […]

Data set [1] can be described thus: PAMPA-BBB permeation assay. The settings on record: for Papp at 100 µM: PAMPA, pH 7.4; for BBB penetration estimation, CNS (+/−): PAMPA-BBB prediction.
In the next data set the test system is TREM2. Description: Immunomodulation assay: TREM2 (M2 marker) expression in LPS-treated N9 microglial cells (Western blot). Type of data set: cell-based, mouse. The settings on record: 100 ng/mL LPS, 6 h pretreatment + 24 h.
Description: as §1, §2, §3

The subject of data set [2] is primary rat cerebellar granule neurons (CGNs). The settings on record: for cell survival/death in CGNs, % mean ± SE of controls (MTT): 24 h treatment; for neurotoxicity profile in CGNs (in words): 5-50 μM, 24 h.

Regarding `CC/C=C\C/C=C\C/C=C\CCCCCCCC(=O)NCCOC(=O)C(CCC)CCC` [compound 2], the “microglia production of M1 proinflammatory marker iNOS” value with iNOS is listed as “significantly decrease”. Moreover, the apparent permeability coefficient (Papp) at 100 µM in data set [1] was 14.6 ± 1.61 ×10⁻⁶ cm/s. Besides, the “BBB penetration estimation, CNS (+/−)” value in data set [1] was “BBB-permeable; also recorded: CNS +”. Moreover, the “expression of TREM2 (M2 marker)” value in the data set on TREM2 was “unchanged expression”. In addition, the “cell survival/death in CGNs, % mean ± SE of controls (MTT)” value in data set [2] (5 μM) is given as 97 ± 16%; in data set [2] (10 μM), 110 ± 3%; in data set [2] (25 μM), 96 ± 15%; in data set [2] (50 μM), 85 ± 14%. Moreover, in data set [2], the “neurotoxicity profile in CGNs (in words)” value is recorded as “low neurotoxicity profile”.

For the compound `CC/C=C\C/C=C\C/C=C\CCCCCCCC(=O)NCCNC(=O)C(CCC)CCC` [compound 1], the “microglia production of M1 proinflammatory marker iNOS” value in the data set on iNOS is on record as “significantly decrease”. In addition, the Papp at 100 µM in data set [1] worked out at 28 ± 5.3 ×10⁻⁶ cm/s. The “BBB penetration estimation, CNS (+/−)” value in data set [1] is “high BBB permeability; also recorded: CNS +”. Moreover, the “expression of TREM2 (M2 marker)” value in the data set on TREM2 is reported as “unchanged expression”. For the same compound, the “cell survival/death in CGNs, % mean ± SE of controls (MTT)” value turned out to be 98 ± 18% in data set [2] (5 μM), 107 ± 3% in data set [2] (10 μM), 89 ± 14% in data set [2] (25 μM) and 99 ± 15% in data set [2] (50 μM). Also, the “neurotoxicity profile in CGNs (in words)” value in data set [2] was “low neurotoxicity profile”.
